Measured values reported in BigSolDB 2.1.

Cc1cccc(Nc2ccccc2C(=O)O)c1C
solubility (mole fraction)
Details	in DMAc	in DMF	in acetone	in cyclohexane	in ethanol	in ethyl acetate	in isopropanol	in n-heptane	in n-hexane	in water
298 K	0.122	0.0171	0.0054	0.0009	0.0019	0.0039	0.002	0.0011	0.0013	–
303 K	0.138	0.0208	0.0055	0.0009	0.002	0.0045	0.0024	0.0013	0.0014	–
308 K	0.153	0.0275	0.0065	0.0011	0.0024	0.0055	0.0026	0.0015	0.0016	–
313 K	0.165	0.0327	0.007	0.0012	0.0032	0.0071	0.0033	0.0017	0.0018	1e-05
318 K	0.175	0.0391	0.0084	0.0014	0.0037	0.0079	0.004	0.0018	0.002	3e-05
323 K	0.19	0.0551	0.0098	0.0016	0.0042	0.0096	0.0053	0.0022	0.0024	5e-05
